Experimental data taken from patent US20120276124A1, “MAYTANSINOIDS AND THE USE OF SAID MAYTANSINOIDS TO PREPARE CONJUGATES WITH AN ANTIBODY” (priority 2009, published 2012).

Key:
MDA-MB231 = experiment: Inhibition of growth of MDA-MB-231 tumor cells by free drugs (14C thymidine uptake); type: cell-based; details: Homo sapiens, MDA-MB231, 96 hrs, read-out: cellular inhibition proliferation (IC50 in nM) MDA-MB231
Procedure: (§1) Inhibition of Growth of MDA-MB-231 and HCT116 Tumor Cells
(§2) Cells in exponential phase of growth were trypsinized and resuspended in their respective culture medium (DMEM/F12 Gibco #21331; 10% SVF Gibco #10500-056; […] Glutamine Gibco #25030 for MDA-MB231 & MDA-A1 cells; DMEM (Gibco #11960) 10%, SVF Gibco #10500-056; […] Glutamine Gibco #25030 for HCT116 cells). Cell suspension was distributed in 96-well Cytostar culture plates (GE Healthcare Europe, #RPNQ0163) in complete serum-containing media at a density of 5000 cells/well (MDA-MB231 HCT116). After coating for 4 hrs, serial dilutions were added to triplicate wells. Cells were cultured at 37° C./5% CO2 in the presence of the drug for 3 days. On the 4th day, 10 μl of a solution of 14C thymidine (0.1 μCi/well (Perkin Elmer #NEC56825000) was added to each well. The uptake of 14C thymidine was measured 96 hrs after the experiment has been started with a microbeta radioactive counter (Perkin Elmer). Cell-free reagent blanks were subtracted from the test well readings and the data were plotted as surviving fractions obtained by dividing readings of the conjugate-treated cells by the average of readings from control wells of vehicle-treated cells.

HCT116 = experiment: Inhibition of growth of HCT116 tumor cells by free drugs (14C thymidine uptake); type: cell-based; details: Homo sapiens, HCT-116; HCT116, 96 hrs; read-out: cellular inhibition proliferation (IC50 in nM) HCT116
Procedure: as §1, §2

SMILES	IC50 (MDA-MB231) [nM]	IC50 (HCT116) [nM]
COC(=O)CCOCCOCCOCCOCCNC(=O)CSC(C)(C)CCC(=O)N(C)[C@@H](C)C(=O)O[C@H]1CC(=O)N(C)c2cc(cc(OC)c2Cl)C/C(C)=C/C=C/[C@@H](OC)[C@@]2(O)C[C@H](OC(=O)N2)[C@@H](C)[C@@H]2O[C@@]12C [Example 10, L-DM4-AcNH-PEG4-COOMe]	15.3	13
COC(=O)CCOCCOCCOCCOCCN(C)C(=O)CSC(C)(C)CCC(=O)N(C)[C@@H](C)C(=O)O[C@H]1CC(=O)N(C)c2cc(cc(OC)c2Cl)C/C(C)=C/C=C/[C@@H](OC)[C@@]2(O)C[C@H](OC(=O)N2)[C@@H](C)[C@@H]2O[C@@]12C [Example 11, L-DM4-AcNMe-PEG4-COOMe]	28.3	18.5
COC(=O)CCOCCOCCOCCOC/C=C/CSC(C)(C)CCC(=O)N(C)[C@@H](C)C(=O)O[C@H]1CC(=O)N(C)c2cc(cc(OC)c2Cl)C/C(C)=C/C=C/[C@@H](OC)[C@@]2(O)C[C@H](OC(=O)N2)[C@@H](C)[C@@H]2O[C@@]12C [Example 12, L-DM4-Allyl-PEG4-COOMe]	1.5	0.8
COC(=O)CCOCCOCCOCCOCCNC(=O)CCN1C(=O)CC(SC(C)(C)CCC(=O)N(C)[C@@H](C)C(=O)O[C@H]2CC(=O)N(C)c3cc(cc(OC)c3Cl)C/C(C)=C/C=C/[C@@H](OC)[C@@]3(O)C[C@H](OC(=O)N3)[C@@H](C)[C@@H]3O[C@@]23C)C1=O (stereo partly drawn) [Example 14, L-DM4-Mal-PEG4-COOMe]	31.7	33.6
